The values below come from PMC3076090 (Pharmaceutical research, 2010).

Read-outs that look alike come from different tables or passages of the source.

The subject of series [1] is blood-brain barrier. The following applies: mouse in situ brain perfusion; cited from earlier work.
The subject of series [2] is blood-brain barrier. The following applies: pH 7.4; S = 100 cm^2·g^−1; rat; cited from earlier work.
The conditions of series [3]: intrinsic PAMPA permeability, 10% porcine brain extract lipids in alkane; cited from earlier work. In general terms: In PAMPA a lipid-coated filter parts donor from acceptor wells.
Series [4] deals with blood-brain barrier. In words: in situ rat brain perfusion, pH-dependent. The following applies: for Kin: 30-s perfusion; for PcS (pH-CRE): new pH-CRE method; for log(Kin/S) (= log Pe): S = 100 cm^2·g^−1; for PcS (CRE): traditional Crone-Renkin equation; for Fpf (cerebrovascular flow velocity refined from the compound's Kin-pH data): weighted nonlinear regression, Eq. 4.
Series [5] can be described thus: pKa determination at 37°C. The format is physicochemical.
For series [6] the following is noted: measured octanol-water partition coefficients from multiple sources; cited from earlier work.
Series [7] has as its system blood-brain barrier. The following applies: male, Sprague-Dawley, rat, 30 s.
In series [8] the test system is blood-brain barrier. The following applies: typical values; cited from earlier work.

A word on the pKa: it is the negative logarithm of the acid dissociation constant. For the molecule `CN(C)CCC=C1c2ccccc2CCc2ccccc21` [Amitriptyline], the “Pgp effect ratio Kin^knockout/Kin^wildtype” value in series [1] is reported as 1.0. Moreover, the “log(Kin/S) (= log Pe)” value in series [2] is reported as −3.27 ± 0.06 cm·s^−1; in series [4] (pH 8.0, this work) it was −3.35 ± 0.13 cm·s^−1; in series [4] (pH 8.5, this work), −3.35 ± 0.13 cm·s^−1. Also, in series [3], the “log Po^PAMPA−BBB” value is given as −1.2. The Kin in series [4] (dosing group B-1, pH 8.0, 10 mM bicine in KRB) amounted to 0.044 ± 0.013 mL/g/s; in series [4] (dosing group B-2, pH 8.5, 10 mM bicine in KRB), 0.045 ± 0.014 mL/g/s. For the same molecule, the entries for the “PcS (pH-CRE)” value in series [4] (pH 7.4), in series [4] (pH 8.0) and in series [4] (pH 8.5) were 2997, 10,974 and 28,173, respectively. The “PcS (CRE)” value in series [4] (pH 8.0) is 549. In series [4], the “Fpf (cerebrovascular flow velocity refined from the compound's Kin-pH data)” value (“Fpf” for short) is given as 0.051 ± 0.003 mL.g^−1.s^−1. For the same molecule, in series [5], the pKa worked out at 8.92 ± 0.1. In addition, the “log POCT” value in series [6] is on record as 4.6.

Take `Cc1cc(=O)n(-c2ccccc2)n1C` [Antipyrine]: the “log Po^PAMPA−BBB” value in series [3] was −5.3. Further, in series [6], the “log POCT” value is given as 0.6. Besides, the “Kin (range over dosing groups)” value in series [7] (in vivo, pH 5.5) fell in the range of 0.0042 to 0.0082 mL/g/s. The “PcS (CRE)” value in series [7] (in vivo, pH 5.5) is 63; in series [7] (in vivo, pH 6.5) it was 54; in series [7] (in vivo, pH 7.4) it was 92; in series [7] (in vivo, pH 8), 80; in series [7] (in vivo, pH 8.5), 70. For the same molecule, the “PcS (pH-CRE)” value in series [7] (in vivo, pH 5.5) was 77; in series [7] (in vivo, pH 6.5) it was 77; in series [7] (in vivo, pH 7.4), 77; in series [7] (in vivo, pH 8), 77; in series [7] (in vivo, pH 8.5), 77. Also, the Kin in series [7] (in vivo, pH 7.4) is reported as 82 ± 23 10^−4 mL.g^−1.s^−1. In addition, the “log Po (intrinsic, neutral molecule, luminal permeability)” value in series [7] (po) is −4.13 ± 0.02 cm.s^−1.

In the case of `CNCC[C@@H](Oc1ccccc1C)c1ccccc1` [Atomoxetine], the “log(Kin/S) (= log Pe)” value was −3.49 ± 0.12 cm·s^−1 in series [2]; −3.59 ± 0.16 cm·s^−1 in series [4] (pH 8.0, this work); −3.50 ± 0.20 cm·s^−1 in series [4] (pH 8.5, this work). Moreover, the “log Po^PAMPA−BBB” value in series [3] is listed as −1.8. The Kin in series [4] (dosing group B-3, pH 8.0, 10 mM bicine in KRB) worked out at 0.026 ± 0.010 mL/g/s; in series [4] (dosing group B-4, pH 8.5, 10 mM bicine in KRB, no CsA) it was 0.032 ± 0.015 mL/g/s. In addition, the “PcS (pH-CRE)” value was 805 in series [4] (pH 7.4), 3134 in series [4] (pH 8.0) and 9295 in series [4] (pH 8.5). In addition, the “PcS (CRE)” value in series [4] (pH 8.0) is 549. In addition, in series [4], the “Fpf” value turned out to be 0.031 ± 0.002 mL.g^−1.s^−1. Besides, in series [5], the pKa came to 9.5 ± 0.05. Besides, the “log POCT” value in series [6] was 3.3.

For `CN(C)CCCN1c2ccccc2CCc2ccccc21` [Imipramine], the Kin in series [4] (dosing group B-5, pH 7.4, KRB) is 0.031 ± 0.021 mL/g/s; in series [4] (dosing group B-6, pH 8.5, 10 mM bicine in KRB), 0.032 ± 0.002 mL/g/s. For the same molecule, the “PcS (pH-CRE)” value in series [4] (pH 7.4) was 1416; in series [4] (pH 8.5), 15,260. Further, the figures for the “PcS (CRE)” value in series [4] (pH 7.4) and in series [4] (pH 8.5) were 1437 and 2150, respectively. Further, the “Fpf” value in series [4] is 0.032 mL.g^−1.s^−1. Further, in series [5], the pKa is 9.23 ± 0.06.

For `COc1ccc2c(c1)c(CC(=O)O)c(C)n2C(=O)c1ccc(Cl)cc1` [Indomethacin], in series [3], the “log Po^PAMPA−BBB” value is −2.7. The Kin stood at 0.032 ± 0.008 mL/g/s in series [4] (dosing group A-1, pH 5.5, 10 mM MES in KRB); 0.004 ± 0.001 mL/g/s in series [4] (dosing group A-2, pH 6.5, 10 mM MES in KRB); 0.0042 ± 0.0008 mL/g/s in series [4] (dosing group A-2, pH 6.5, 10 mM MES in KRB, listed as indomethacin). Besides, the “log(Kin/S) (= log Pe)” value in series [4] (pH 5.5, this work) is recorded as −3.50 ± 0.10 cm·s^−1; in series [4] (pH 6.5, this work (sertraline with 5 µM CsA)), −4.39 ± 0.08 cm·s^−1. The “PcS (pH-CRE)” value was found to be 399 in series [4] (pH 5.5) and 42 in series [4] (pH 6.5). Further, the “PcS (CRE)” value in series [4] (pH 5.5) stood at 400; in series [4] (pH 6.5), 42. The “Fpf” value in series [4] worked out at 0.081 mL.g^−1.s^−1. For the same molecule, the “log POCT” value in series [6] is 3.5.

For the molecule `CNCCCC12CCC(c3ccccc31)c1ccccc12` [Maprotiline], the “log Po^PAMPA−BBB” value in series [3] is listed as −0.6. Further, the Kin was found to be 0.052 ± 0.011 mL/g/s in series [4] (dosing group B-7, pH 8.0, 10 mM bicine in KRB) and 0.036 ± 0.013 mL/g/s in series [4] (dosing group B-8, pH 8.5, 10 mM bicine in KRB). Further, the “log(Kin/S) (= log Pe)” value is reported as −3.48 ± 0.11 cm·s^−1 in series [4] (pH 7.4, this work); −3.29 ± 0.09 cm·s^−1 in series [4] (pH 8.0, this work); −3.44 ± 0.15 cm·s^−1 in series [4] (pH 8.5, this work). For the same molecule, the “PcS (pH-CRE)” value is 591 in series [4] (pH 7.4), 2335 in series [4] (pH 8.0) and 7234 in series [4] (pH 8.5). In addition, the “PcS (CRE)” value in series [4] (pH 7.4) stood at 580; in series [4] (pH 8.5) it was 691. Further, the “Fpf” value in series [4] is given as 0.047 ± 0.006 mL.g^−1.s^−1. Further, in series [5], the pKa worked out at 10.01 ± 0.01. The “log POCT” value in series [6] is given as 5.1.

Regarding `CN[C@H]1CC[C@@H](c2ccc(Cl)c(Cl)c2)c2ccccc21` [Sertraline], the “log POCT” value in series [6] is 4.9.

Take `OC[C@H]1O[C@@](CO)(O[C@H]2O[C@H](CO)[C@@H](O)[C@H](O)[C@H]2O)[C@@H](O)[C@@H]1O` [sucrose]: the “in vivo Pc (paracellular)” value in series [8] is recorded as “about 0.15 10^−6 cm·s^−1”.

inulin: the “in vivo Pc (paracellular)” value in series [8] is given as ~0.04 10^−6 cm·s^−1.
